Experimental data from patent publication US7968116B2, “Antitumor agent” (Otsuka Pharmaceutical Co., Ltd., priority 2005, dated 2011).
Where two headings read alike, the source gives them in different places.

Test system: HT-29 (human) cancer cell line
Assay: Cell proliferation inhibitory effect (MTT assay) on cultured cancer cell line HT-29
Assay type: cell-based
Conditions: HT-29 cells; for IC50: incubation at 37° C. for three days, MTT assay, read-out: CPI50 (concentration required for attaining 50% CPI, percent cell proliferation inhibition)
Experimental: A cultured cancer cell line (HT-29 (human)) was inoculated into a 96-well plate (1×10^4 cells/100 μL/well), and subsequently the GlcNAc-cholestanol-compound-containing liposomal formulation or cyclodextrin inclusion complexation prepared in Example 1 was added to the 96-well plate, followed by incubation at 37° C. for three days. Thereafter, the MTT assay was performed, and the number of cells was determined. Percent cell proliferation inhibition was obtained by use of the below-described formula.
Percent cell proliferation inhibition (percent CPI) (%)=(1 −OD of treated cells/OD of non-treated cells)×100 [E1]
OD of treated cells and OD of non-treated cells were measured at 450 nm and 650 nm, respectively (according to the MTT assay).

[1] = Cyclodextrin inclusion complexation

Structure (SMILES): CC(C)CCC[C@@H](C)[C@H]1CC[C@H]2[C@@H]3CC[C@H]4C[C@@H](O)CC[C@]4(C)[C@H]3CC[C@]12C [Chol, cholestanol]
- IC50 [1]: > 1000 µM
- IC50 (Liposomal formulation): 354 µM

Structure (SMILES): CC(=O)N[C@H]1[C@H](O[C@H]2[C@@H](O)[C@@H](CO)O[C@@H](O[C@H]3CC[C@@]4(C)[C@@H](CC[C@@H]5[C@@H]4CC[C@]4(C)[C@@H]([C@H](C)CCCC(C)C)CC[C@@H]54)C3)[C@@H]2O)O[C@H](CO)[C@@H](O)[C@@H]1O [GlcNAcGalChol, GlcNAcβ1,3Galβ-cholestanol]
- IC50 [1]: 15.9 µM
- IC50 (Liposomal formulation): 10.2 µM

Structure (SMILES): CC(C)CCC[C@@H](C)[C@H]1CC[C@H]2[C@@H]3CCC4CC(OC5O[C@H](CO)[C@H](O)[C@H](O)[C@H]5O)CC[C@]4(C)[C@H]3CC[C@]12C (stereo partly drawn) [GalChol, Galp-cholestanol]
- IC50 [1]: 37.4 µM
- IC50 (Liposomal formulation): 12.7 µM

Structure (SMILES): CC(=O)N[C@H]1[C@H](O[C@H]2CC[C@@]3(C)[C@@H](CC[C@@H]4[C@@H]3CC[C@]3(C)[C@@H]([C@H](C)CCCC(C)C)CC[C@@H]43)C2)O[C@H](CO)[C@@H](O)[C@@H]1O [GlcNacChol, 5-α-cholestan-3β-yl-2-acetamido-2-deoxy-β-D-glucopyranoside]
- IC50 [1]: 8.8 µM
- cell proliferation inhibitory effect (in words) (liposomal formulation or cyclodextrin inclusion complexation, three days): strong cell proliferation inhibitory effect
- IC50 (Liposomal formulation): 10.4 µM
